Assay results published in ChEMBL document CHEMBL4823315 (Bioorg Med Chem Lett, 2021).
Each block holds one molecule with its values, some of them ahead of it.

What was measured:
[1] = Inhibition of p70S6K (unknown origin); design: species or system Homo sapiens
[2] = target: Voltage-gated inwardly rectifying potassium channel KCNH2 (Homo sapiens, UniProt Q12809); assay: Inhibition of human ERG by patch clamp assay
[3] = target: Serine/threonine-protein kinase AKT (Homo sapiens, UniProt P31751+Q9Y243+P31749); assay: Inhibition of Akt (unknown origin); format: protein assay
[4] = Inhibition of Akt/p70S6K in human MDA-MB-436 cells assessed as inhibition of S6 phosphorylation; format: cell-based
[5] = Thermodynamic solubility of the compound at pH 1.2; format: physicochemical; details: buffer, read-out: Therm_solubility
[6] = Thermodynamic solubility of the compound at pH 7.4; format: physicochemical; details: buffer, read-out: Therm_solubility
[7] = Protein binding in mouse plasma assessed as unbound fraction; format: ADME, cell-free
[8] = Efflux ratio of apparent permeability in human Caco-2 cells; format: ADME, cell-based
[9] = Cmax in CD-1 mouse at 0.2 mg/kg, iv; format: ADME, organism-based; design: route intravenous, dose 0.2 mg/kg; details: in vivo
[10] = Cmax in CD-1 mouse at 0.5 mg/kg, po; format: ADME, organism-based; design: route oral, dose 0.5 mg/kg; details: in vivo
[11] = Clearance in CD-1 mouse at 0.5 mg/kg, po or 0.2 mg/kg, iv; format: ADME, organism-based; details: in vivo
Cytochrome P450 2B6 = target: T1, Cytochrome P450 2B6 (Homo sapiens, UniProt P20813); assay: Inhibition of CYP2B6 (unknown origin); format: ADME
T1 sequence (P20813 whole entry): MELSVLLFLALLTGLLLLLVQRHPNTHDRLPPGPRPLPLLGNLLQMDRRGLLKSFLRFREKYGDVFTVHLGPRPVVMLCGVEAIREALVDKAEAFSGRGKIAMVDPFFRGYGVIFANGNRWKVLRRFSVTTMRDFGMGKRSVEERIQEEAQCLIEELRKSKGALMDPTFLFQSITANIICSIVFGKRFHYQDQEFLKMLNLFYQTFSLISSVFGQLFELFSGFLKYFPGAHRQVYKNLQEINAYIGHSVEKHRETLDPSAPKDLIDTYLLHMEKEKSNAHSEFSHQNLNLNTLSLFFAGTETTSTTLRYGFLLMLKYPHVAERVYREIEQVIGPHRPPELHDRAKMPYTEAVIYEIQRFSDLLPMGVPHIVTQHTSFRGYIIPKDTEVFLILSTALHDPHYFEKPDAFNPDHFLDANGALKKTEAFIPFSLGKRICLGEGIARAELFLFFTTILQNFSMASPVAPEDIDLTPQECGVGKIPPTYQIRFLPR

[12] = Protein binding in human plasma assessed as unbound fraction; format: ADME, cell-free
[13] = AUC in CD-1 mouse at 0.5 mg/kg, po; format: ADME, organism-based; design: dose 0.5 mg/kg; details: in vivo
[14] = Intrinsic clearance in mouse liver microsomes; format: ADME, Microsome; details: read-out: CLH
Cytochrome P450 3A4 = Cytochrome P450 3A4 (Homo sapiens, UniProt P08684); assay: Inhibition of CYP3A4 (unknown origin); format: ADME
Sequence of Cytochrome P450 3A4 (P08684 whole entry): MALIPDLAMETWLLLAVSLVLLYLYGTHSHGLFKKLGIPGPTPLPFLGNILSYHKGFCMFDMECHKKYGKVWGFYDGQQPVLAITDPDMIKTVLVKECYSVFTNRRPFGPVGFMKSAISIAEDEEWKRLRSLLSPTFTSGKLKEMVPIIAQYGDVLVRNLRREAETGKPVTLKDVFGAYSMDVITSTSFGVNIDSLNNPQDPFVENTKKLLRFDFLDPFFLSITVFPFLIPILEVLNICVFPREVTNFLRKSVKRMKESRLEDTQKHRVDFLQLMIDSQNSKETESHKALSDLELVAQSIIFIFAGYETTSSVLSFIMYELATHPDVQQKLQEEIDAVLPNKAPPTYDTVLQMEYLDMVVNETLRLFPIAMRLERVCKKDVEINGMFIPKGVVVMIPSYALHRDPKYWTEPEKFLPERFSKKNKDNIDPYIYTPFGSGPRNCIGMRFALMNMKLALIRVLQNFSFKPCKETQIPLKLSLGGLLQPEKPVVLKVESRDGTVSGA

Cytochrome P450 1A2 = target: T2, Cytochrome P450 1A2 (Homo sapiens, UniProt P05177); assay: Inhibition of CYP1A2 (unknown origin); format: ADME
T2 sequence (P05177 whole entry): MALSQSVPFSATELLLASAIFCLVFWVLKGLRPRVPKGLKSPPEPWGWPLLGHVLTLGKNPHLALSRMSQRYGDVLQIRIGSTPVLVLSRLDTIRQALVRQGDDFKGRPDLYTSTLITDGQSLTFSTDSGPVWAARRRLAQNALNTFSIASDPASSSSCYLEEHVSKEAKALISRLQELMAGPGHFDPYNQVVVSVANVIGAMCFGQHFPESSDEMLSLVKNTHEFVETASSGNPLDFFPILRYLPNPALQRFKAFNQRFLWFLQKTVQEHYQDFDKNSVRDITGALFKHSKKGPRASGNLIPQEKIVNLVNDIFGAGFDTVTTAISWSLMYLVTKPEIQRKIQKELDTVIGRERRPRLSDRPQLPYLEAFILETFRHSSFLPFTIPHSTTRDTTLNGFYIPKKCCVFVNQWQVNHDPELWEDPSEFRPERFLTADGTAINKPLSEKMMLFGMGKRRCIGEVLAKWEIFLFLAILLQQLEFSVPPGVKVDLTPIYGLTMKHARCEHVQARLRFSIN

Cytochrome P450 2D6 = Cytochrome P450 2D6 (Homo sapiens, UniProt P10635); assay: Inhibition of CYP2D6 (unknown origin); format: ADME
Sequence of Cytochrome P450 2D6 (P10635 whole entry): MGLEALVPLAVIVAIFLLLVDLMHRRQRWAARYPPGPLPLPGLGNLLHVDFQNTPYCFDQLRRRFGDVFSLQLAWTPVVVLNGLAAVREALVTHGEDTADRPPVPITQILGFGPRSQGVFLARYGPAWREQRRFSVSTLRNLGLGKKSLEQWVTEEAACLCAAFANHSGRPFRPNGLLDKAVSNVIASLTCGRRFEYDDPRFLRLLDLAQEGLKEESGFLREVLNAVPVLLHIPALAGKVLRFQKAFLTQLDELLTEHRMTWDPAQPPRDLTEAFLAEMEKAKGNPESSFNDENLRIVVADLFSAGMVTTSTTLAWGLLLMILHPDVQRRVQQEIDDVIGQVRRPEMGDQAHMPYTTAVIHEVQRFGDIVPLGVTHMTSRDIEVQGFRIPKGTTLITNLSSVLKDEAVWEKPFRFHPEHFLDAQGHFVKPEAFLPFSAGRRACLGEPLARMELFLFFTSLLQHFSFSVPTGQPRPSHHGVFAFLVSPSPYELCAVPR

[15] = Volume of distribution in CD-1 mouse at 0.5 mg/kg, po or 0.2 […], iv; format: ADME, organism-based; details: in vivo
Cytochrome P450 2C9 = Cytochrome P450 2C9 (Homo sapiens, UniProt P11712); assay: Inhibition of CYP2C9 (unknown origin); format: ADME
Sequence of Cytochrome P450 2C9 (P11712 whole entry): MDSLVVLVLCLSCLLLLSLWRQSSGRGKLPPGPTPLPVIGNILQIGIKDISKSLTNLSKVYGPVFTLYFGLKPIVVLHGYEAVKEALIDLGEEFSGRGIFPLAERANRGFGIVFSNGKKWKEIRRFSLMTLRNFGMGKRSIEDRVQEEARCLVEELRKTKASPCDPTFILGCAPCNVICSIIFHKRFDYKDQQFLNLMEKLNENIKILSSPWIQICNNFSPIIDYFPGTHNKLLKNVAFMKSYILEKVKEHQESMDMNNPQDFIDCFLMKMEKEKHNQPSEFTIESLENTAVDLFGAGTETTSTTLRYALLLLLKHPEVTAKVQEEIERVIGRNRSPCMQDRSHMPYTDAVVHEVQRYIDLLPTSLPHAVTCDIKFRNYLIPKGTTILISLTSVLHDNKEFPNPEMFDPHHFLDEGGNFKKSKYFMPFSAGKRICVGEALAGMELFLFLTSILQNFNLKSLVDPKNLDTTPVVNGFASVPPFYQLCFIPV

Cytochrome P450 2C8 = target: T3, Cytochrome P450 2C8 (Homo sapiens, UniProt P10632); assay: Inhibition of CYP2C8 (unknown origin); format: ADME
T3 sequence (P10632 whole entry): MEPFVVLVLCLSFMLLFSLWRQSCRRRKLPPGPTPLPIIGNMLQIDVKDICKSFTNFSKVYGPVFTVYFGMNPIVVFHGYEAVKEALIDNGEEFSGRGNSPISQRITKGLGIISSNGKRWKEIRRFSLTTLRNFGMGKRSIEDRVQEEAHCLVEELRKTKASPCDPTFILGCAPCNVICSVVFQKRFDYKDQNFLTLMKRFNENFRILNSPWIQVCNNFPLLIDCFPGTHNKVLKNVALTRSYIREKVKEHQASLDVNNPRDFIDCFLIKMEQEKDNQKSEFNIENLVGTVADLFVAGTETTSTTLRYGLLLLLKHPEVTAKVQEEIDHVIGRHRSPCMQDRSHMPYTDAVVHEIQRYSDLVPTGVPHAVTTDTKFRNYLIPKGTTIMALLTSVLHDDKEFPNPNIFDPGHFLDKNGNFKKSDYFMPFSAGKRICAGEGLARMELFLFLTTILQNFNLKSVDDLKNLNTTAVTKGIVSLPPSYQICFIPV

[16] = Oral bioavailability in CD-1 mouse at 0.5 mg/kg; format: ADME, organism-based; details: in vivo
[17] = Apparent permeability across apical to basal side in human Caco-2 cells; format: ADME, cell-based
Cytochrome P450 2C19 = Cytochrome P450 2C19 (Homo sapiens, UniProt P33261); assay: Inhibition of CYP2C19 (unknown origin); format: ADME
Sequence of Cytochrome P450 2C19 (P33261 whole entry): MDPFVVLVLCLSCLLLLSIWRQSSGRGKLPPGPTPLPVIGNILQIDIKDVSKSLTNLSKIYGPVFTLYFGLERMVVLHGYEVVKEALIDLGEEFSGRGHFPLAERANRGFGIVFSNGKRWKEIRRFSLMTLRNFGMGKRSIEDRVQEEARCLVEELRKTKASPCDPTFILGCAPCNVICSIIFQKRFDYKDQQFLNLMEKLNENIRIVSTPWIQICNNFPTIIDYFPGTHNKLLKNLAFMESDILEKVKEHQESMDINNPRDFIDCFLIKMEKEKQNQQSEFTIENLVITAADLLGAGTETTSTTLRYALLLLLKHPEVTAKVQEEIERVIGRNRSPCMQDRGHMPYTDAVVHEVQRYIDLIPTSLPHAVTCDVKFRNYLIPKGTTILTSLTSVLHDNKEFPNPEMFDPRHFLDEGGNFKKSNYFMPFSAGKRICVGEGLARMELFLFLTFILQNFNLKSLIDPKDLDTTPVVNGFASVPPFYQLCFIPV

[18] = AUC in CD-1 mouse at 0.2 mg/kg, iv; format: ADME, organism-based; design: dose 0.2 mg/kg; details: in vivo
[19] = Half life in CD-1 mouse at 0.5 mg/kg, po or 0.2 mg/kg, iv; format: ADME, organism-based; details: in vivo
[20] = Intrinsic clearance in human liver microsomes; format: ADME, Microsome; details: read-out: CLH

Sequence of Voltage-gated inwardly rectifying potassium channel KCNH2 (Q12809 whole entry): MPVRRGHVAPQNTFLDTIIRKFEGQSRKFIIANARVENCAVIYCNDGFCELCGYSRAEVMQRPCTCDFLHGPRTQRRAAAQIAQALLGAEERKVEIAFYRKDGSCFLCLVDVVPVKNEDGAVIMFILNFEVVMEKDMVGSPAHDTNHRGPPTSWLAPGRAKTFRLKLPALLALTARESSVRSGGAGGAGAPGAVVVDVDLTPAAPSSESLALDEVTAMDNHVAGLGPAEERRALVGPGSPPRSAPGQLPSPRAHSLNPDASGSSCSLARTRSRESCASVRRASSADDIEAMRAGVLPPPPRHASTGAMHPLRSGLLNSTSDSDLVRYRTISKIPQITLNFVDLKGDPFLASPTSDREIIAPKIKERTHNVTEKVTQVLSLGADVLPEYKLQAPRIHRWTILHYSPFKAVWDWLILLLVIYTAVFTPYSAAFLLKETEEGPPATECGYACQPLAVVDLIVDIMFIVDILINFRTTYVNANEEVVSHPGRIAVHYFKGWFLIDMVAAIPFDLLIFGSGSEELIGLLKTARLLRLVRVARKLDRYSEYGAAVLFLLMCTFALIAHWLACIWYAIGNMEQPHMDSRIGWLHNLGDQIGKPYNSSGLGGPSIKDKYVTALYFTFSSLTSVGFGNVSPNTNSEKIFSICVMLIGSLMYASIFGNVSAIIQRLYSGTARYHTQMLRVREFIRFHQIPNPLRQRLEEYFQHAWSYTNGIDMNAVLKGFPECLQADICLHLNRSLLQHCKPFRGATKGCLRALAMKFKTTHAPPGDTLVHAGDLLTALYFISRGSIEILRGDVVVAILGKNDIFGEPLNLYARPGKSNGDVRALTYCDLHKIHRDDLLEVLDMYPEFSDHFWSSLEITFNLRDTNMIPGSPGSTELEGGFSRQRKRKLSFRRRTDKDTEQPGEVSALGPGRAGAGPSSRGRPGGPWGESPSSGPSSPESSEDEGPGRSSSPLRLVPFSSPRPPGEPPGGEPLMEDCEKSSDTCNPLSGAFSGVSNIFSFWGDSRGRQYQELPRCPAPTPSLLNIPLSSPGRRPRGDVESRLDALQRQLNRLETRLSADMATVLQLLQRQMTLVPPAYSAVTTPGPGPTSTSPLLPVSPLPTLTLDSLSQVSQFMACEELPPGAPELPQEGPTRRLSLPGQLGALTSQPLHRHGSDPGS

Compound: Nc1ncnc(N2CCC(c3nc(-c4ccc(F)c(C(F)(F)F)c4)cn3CCN3CCC3)CC2)c1C1CCC1
IC50 [1]: 6 nM | IC50 [2]: 1300 nM | IC50 [3]: 7.3 nM

Compound: CN(C)CCn1cc(-c2ccc(F)c(C(F)(F)F)c2)nc1C1CCN(c2ncnc(N)c2C2CC2)CC1
IC50 [1]: 3.2 nM | IC50 [2]: 830 nM | IC50 [3]: 4.8 nM

Compound: CN(C)CC(c1ccc(C(F)(F)F)cc1)N1CCN(c2ncnc(N)c2-c2ccc(F)cc2)CC1 (stereo not given)
IC50 [1]: 4.9 nM | IC50 [4]: 1200 nM | IC50 [3]: > 1000 nM

Compound: CC(C)c1c(N)ncnc1N1CCC(c2nc(-c3ccc(F)c(C(F)(F)F)c3)cn2CCN2CCC2)CC1
IC50 [1]: 3.5 nM | IC50 [2]: 1800 nM | IC50 [4]: 78000 nM | IC50 [3]: 6.6 nM

Compound: CCc1c(N)ncnc1N1CCC(c2nc(-c3ccc(F)c(C(F)(F)F)c3)cn2CCN(C)C)CC1
IC50 [1]: 3.7 nM | IC50 [3]: 12 nM

Compound: Nc1ncnc(N2CCC(c3nc(-c4ccc(F)c(C(F)(F)F)c4)cn3CCN3CCCC3)CC2)c1-c1ccc(F)cc1
IC50 [1]: 8.2 nM | IC50 [2]: 1500 nM | IC50 [3]: 140 nM

Compound: CN(C)CCn1cc(-c2ccc(F)c(C(F)(F)F)c2)nc1C1CCN(c2ncnc(N)c2C(N)=O)CC1
IC50 [1]: 3.5 nM | IC50 [2]: 4000 nM | IC50 [4]: 89000 nM | IC50 [3]: 84 nM

Compound: C=Cc1c(N)ncnc1N1CCC(c2nc(-c3ccc(F)c(C(F)(F)F)c3)cn2CCN(C)C)CC1
IC50 [1]: 3.5 nM | IC50 [2]: 1100 nM | IC50 [3]: 9.1 nM

Compound: CN(C)CCn1cc(-c2ccc(F)c(C(F)(F)F)c2)nc1C1CCN(c2ncnc(N)c2-c2ccc(F)cc2)CC1
IC50 [1]: 7.3 nM | IC50 [2]: 1200 nM | IC50 [3]: 230 nM

Compound: Cn1cc(-c2ccc(F)c(C(F)(F)F)c2)nc1C1CCN(c2ncnc(N)c2-c2ccc(F)cc2)CC1
solubility thermodynamic [5]: < 1 µg/mL | solubility thermodynamic [6]: < 1 µg/mL | fraction unbound [7]: 0.0003 | efflux ratio [8]: 1.3 | Cmax [9]: 597 ng/mL | Cmax [10]: 72.1 ng/mL | CL [11]: 12.3 mL/min/kg | IC50 (Cytochrome P450 2B6): 6500 nM | fraction unbound [12]: 0.0008 | AUC [13]: 557 ng·h/mL | microsomal CLint [14]: 48 µL/min/mg | IC50 (Cytochrome P450 3A4): > 20000 nM | IC50 (Cytochrome P450 1A2): > 20000 nM | IC50 (Cytochrome P450 2D6): > 20000 nM | IC50 [1]: 4 nM | Vd [15]: 2.16 L/kg | IC50 (Cytochrome P450 2C9): > 20000 nM | IC50 (Cytochrome P450 2C8): > 20000 nM | IC50 [2]: 1800 nM | F [16]: 41% | Papp A→B [17]: 1.9 ×10⁻⁶ cm/s | IC50 [4]: 40 nM | IC50 [3]: 2200 nM | IC50 (Cytochrome P450 2C19): > 20000 nM | AUC [18]: 1350 ng·h/mL | half-life [19]: 4.68 h | microsomal CLint [20]: 23 µL/min/mg

The next molecules have a lower IC50 [1] than those just listed; values first:

IC50 [1]: 2.4 nM | IC50 [3]: 23 nM
Compound: Nc1ncnc(N2CCC(c3nc(-c4ccc(F)c(C(F)(F)F)c4)cn3CCN3CCC3)CC2)c1-c1ccc(F)cc1
IC50 [2]: 1300 nM

IC50 [1]: 1.3 nM | IC50 [4]: 300 nM | IC50 [3]: 260 nM
Compound: Cn1cc(-c2ccc(F)c(C(F)(F)F)c2)nc1C1CCN(c2ncnc(N)c2C#N)CC1

IC50 [1]: 2.2 nM | IC50 [4]: 400 nM | IC50 [3]: 350 nM
Compound: NCC(c1ccc(C(F)(F)F)cc1)N1CCN(c2ncnc(N)c2-c2ccc(F)cc2)CC1 (stereo not given)

IC50 [1]: 0.6 nM | IC50 [4]: 64000 nM | IC50 [3]: 1 nM
Compound: Nc1ncnc(N2CCC(c3nc(-c4ccc(F)c(C(F)(F)F)c4)cn3CCN3CCC3)CC2)c1Cl
IC50 [2]: 1900 nM

IC50 [1]: 2.2 nM | IC50 [4]: 1200 nM | IC50 [3]: 518 nM
Compound: COc1c(N)ncnc1N1CCC(c2nc(-c3ccc(F)c(C(F)(F)F)c3)cn2C)CC1

IC50 [1]: 3 nM | IC50 [4]: 2300 nM | IC50 [3]: 1600 nM
Compound: Cn1cc(-c2ccc(F)c(C(F)(F)F)c2)nc1C1CCN(c2ncnc(N)c2C(N)=O)CC1
IC50 [2]: 1900 nM
